Data reported in the supplement of paper PMC10883282.
± gives the standard deviation of the averaged measurements.

Legend:
VA-ES-BJ [1] = experiment: standardised AUC of viability dose-response curve (72 h) (fraction (0-1)); higher = less growth inhibition (more resistant)
Outline: (§1)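 Sarcoma cell lines in 384-well plates were treated in triplicate for 72 h with 2.5 µl of compound dilution series (compound-plate series 10 mM to 0.0002 mM, 1:3 steps). ATPLite viability was scaled 1 (full) to 0 (none) and fitted per drug and cell line with a four-parameter log-logistic model. The standardised area under the dose-response curve in log-dose space (modified drexplorer computeAUC) runs from 1 (no response) to 0 (full response).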

G401 = experiment: as above
Outline: as §1

SW872 = experiment: as above
Outline: as §1

SYO-1 = experiment: as above
Outline: as §1

MES-SA [2] = experiment: as above
Outline: as §1

HT1080 = experiment: as above
Outline: as §1

KHOS-240S = experiment: as above
Outline: as §1

SK-LMS-1 = experiment: as above
Outline: as §1

RD-ES = experiment: as above
Outline: as §1

SW1353 = experiment: as above
Outline: as §1

A204 [3] = experiment: as above
Outline: as §1

SW982 [4] = experiment: as above
Outline: as §1

SW684 = experiment: as above
Outline: as §1

SK-ES-1 [5] = experiment: as above
Outline: as §1

RD = experiment: as above
Outline: as §1

HS729 = experiment: as above
Outline: as §1

KHOS-NP = experiment: as above
Outline: as §1

VA-ES-BJ [6] = experiment: relative viability vs DMSO control (72 h) (fraction); higher = more viable cells
Outline: (§2)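 Sarcoma cell lines were seeded in 384-well plates at densities set to reach 80–90% confluence. After 24 h, 2.5 µl of serially diluted compound was added (source plates 10 mM to 0.0002 mM), and plates were held 72 h at 37 °C, 5% CO2, with 0.1% DMSO vehicle and a 5 µM positive control. Relative viability came from ATPLite readings as percent growth, averaged over up to triplicate wells. Data were rescaled so full viability equals 1 and none equals 0.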

MES-SA [7] = experiment: as above
Outline: as §2

A204 [8] = experiment: as above
Outline: as §2

SW982 [9] = experiment: as above
Outline: as §2

SK-ES-1 [10] = experiment: as above
Outline: as §2

CNC(=O)c1nnc(NC(=O)C2CC2)cc1Nc1cccc(-c2ncn(C)n2)c1OC
Details | standardised AUC
A204 [3] | 0.978
G401 | 0.99
HS729 | 0.956
HT1080 | 0.992
KHOS-240S | 0.976
KHOS-NP | 0.993
MES-SA [2] | 0.984
RD | 0.983
RD-ES | 0.99
SK-ES-1 [5] | 0.958
SK-LMS-1 | 0.988
SW684 | 0.991
SW872 | 0.983
SW982 [4] | 0.983
SW1353 | 0.986
SYO-1 | 0.989
VA-ES-BJ [1] | 0.986

relative viability
Details | A204 [8] | MES-SA [7] | SK-ES-1 [10] | SW982 [9] | VA-ES-BJ [6]
0.00017 µM | 1.1 ± 0.046 | 0.926 ± 0.034 | 1.03 ± 0.082 | 1.05 ± 0.056 | 0.986 ± 0.034
0.00051 µM | 1.09 ± 0.021 | 0.938 ± 0.016 | 1.03 ± 0.058 | 1.06 ± 0.04 | 0.996 ± 0.037
0.00152 µM | 1.08 ± 0.033 | 0.926 ± 0.024 | 1.1 ± 0.055 | 1.05 ± 0.048 | 1.02 ± 0.028
0.00457 µM | 1.06 ± 0.023 | 0.92 ± 0.018 | 1.03 ± 0.058 | 1.04 ± 0.024 | 1.04 ± 0.014
0.01372 µM | 1.06 ± 0.048 | 0.943 ± 0.024 | 1.07 ± 0.012 | 1.05 ± 0.03 | 1.035 ± 0.0086
0.04115 µM | 1.06 ± 0.021 | 0.952 ± 0.044 | 1.04 ± 0.019 | 1.06 ± 0.057 | 1.03 ± 0.027
0.1235 µM | 1.07 ± 0.018 | 0.944 ± 0.0097 | 1.02 ± 0.047 | 1.06 ± 0.028 | 1.03 ± 0.015
0.3704 µM | 1.09 ± 0.037 | 0.943 ± 0.019 | 1.04 ± 0.033 | 1.07 ± 0.056 | 1.01 ± 0.031
1.111 µM | 1.11 ± 0.054 | 0.923 ± 0.0098 | 0.968 ± 0.04 | 1.06 ± 0.026 | 1.04 ± 0.067
3.333 µM | 1.01 ± 0.025 | 0.891 ± 0.024 | 0.891 ± 0.031 | 1.02 ± 0.076 | 0.974 ± 0.067
10 µM | 0.714 ± 0.042 | 0.669 ± 0.017 | 0.517 ± 0.018 | 0.722 ± 0.033 | 0.828 ± 0.033

COc1cc(CCc2cc(NC(=O)c3ccc(N4CC(C)NC(C)C4)cc3)n[nH]2)cc(OC)c1 (centres undefined) [AZD-4547]
Details | standardised AUC
A204 [3] | 0.742
G401 | 0.729
HS729 | 0.752
HT1080 | 0.965
KHOS-240S | 0.831
KHOS-NP | 0.947
MES-SA [2] | 0.857
RD | 0.948
RD-ES | 0.903
SK-ES-1 [5] | 0.869
SK-LMS-1 | 0.988
SW684 | 0.965
SW872 | 0.934
SW982 [4] | 0.91
SW1353 | 0.873
SYO-1 | 0.698
VA-ES-BJ [1] | 0.987

relative viability
Details | A204 [8] | MES-SA [7] | SK-ES-1 [10] | SW982 [9] | VA-ES-BJ [6]
0.00017 µM | 1.04 ± 0.011 | 0.886 ± 0.052 | 1.02 ± 0.033 | 1 ± 0.045 | 1.05 ± 0.044
0.00051 µM | 1.06 ± 0.015 | 0.888 ± 0.042 | 1.02 ± 0.039 | 1 ± 0.033 | 1.01 ± 0.03
0.00152 µM | 1.04 ± 0.015 | 0.92 ± 0.05 | 1.01 ± 0.067 | 1.02 ± 0.014 | 1.03 ± 0.048
0.00457 µM | 1.02 ± 0.033 | 0.921 ± 0.015 | 1 ± 0.056 | 1.018 ± 0.0076 | 1.02 ± 0.013
0.01372 µM | 1.02 ± 0.044 | 0.894 ± 0.027 | 1.05 ± 0.1 | 0.982 ± 0.047 | 1.01 ± 0.044
0.04115 µM | 0.841 ± 0.062 | 0.89 ± 0.045 | 0.947 ± 0.083 | 1 ± 0.013 | 0.975 ± 0.028
0.1235 µM | 0.714 ± 0.017 | 0.789 ± 0.015 | 0.928 ± 0.088 | 1 ± 0.025 | 0.983 ± 0.039
0.3704 µM | 0.625 ± 0.034 | 0.708 ± 0.012 | 0.878 ± 0.017 | 0.995 ± 0.037 | 1.02 ± 0.036
1.111 µM | 0.556 ± 0.05 | 0.655 ± 0.017 | 0.821 ± 0.04 | 0.922 ± 0.071 | 1.07 ± 0.069
3.333 µM | 0.463 ± 0.01 | 0.554 ± 0.02 | 0.483 ± 0.024 | 0.591 ± 0.021 | 0.987 ± 0.017
10 µM | 0.274 ± 0.011 | 0.266 ± 0.01 | 0.141 ± 0.004 | 0.206 ± 0.015 | 0.681 ± 0.032
